Measurements from US6303761A, “Triaminepentaacetic acid compound and paramagnetic metal complex prepared from using the compound as ligand” (Department of Health The Executive Yuan, Republic of China, priority 1999, dated 2001).
Like-named read-outs stand apart in the source and are kept apart here.

Columns and labels:
[1] = Protonation constants of the organic ligands (potentiometric titration, program PKAS); type: physicochemical; settings: for pKa: aqueous me4nno3, 25.0 ± 0.1° C., aqueous Me4 NNO3, I = 0.10 mol dm^-3
Experimental: The ionic strength was 0.10 mol dm^-3 Me4 NNO3 ((CH3)4 NNO3). […] The titrant used was 0.1 mol dm^-3 NaOH with a titration amount of 0.005 ml/time.

[2] = Thermodynamic and conditional stability constants of the Ca^2+ complexes (potentiometric titration, program BEST); type: physicochemical; settings: 25.0 ± 0.1° C., aqueous Me4 NNO3, I = 0.10 mol dm^-3
Experimental: (§1) The pH electrode was calibrated using two standard buffer solutions with pH 7.0±0.05 and pH 4.0±0.05 respectively. The ionic strength was 0.10 mol dm^-3 Me4 NNO3 ((CH3)4 NNO3). […] The titrant used was 0.1 mol dm^-3 NaOH with a titration amount of 0.005 ml/time.
(§2) (1) Direct Potentiometric Titration: The metal ion and ligand is mixed in 1:1 molar ratio.
(§3) (2) Ligand-ligand Competition Titration: The metal ion, ligand, and EDTA is mixed in 1:1:1 molar ratio.
(§4) M: metal ion, L: organic ligand, ML: metal complex The conditional stability constant is defined by equation (2): [formula]
(§5) The relationship between the conditional stability constant and the thermodynamic stability constant is defined by equation (3): [formula]
(§6) K2^H [H^+ ]^2 + . . . }^-1 =KthermαH

[3] = Thermodynamic and conditional stability constants of the Zn^2+ complexes (potentiometric titration, program BEST); type: physicochemical; settings: 25.0 ± 0.1° C., aqueous Me4 NNO3, I = 0.10 mol dm^-3
Experimental: as §1, §2, §3, §4, §5, §6

[4] = Thermodynamic and conditional stability constants of the Cu^2+ complexes (potentiometric titration, program BEST); type: physicochemical; settings: 25.0 ± 0.1° C., aqueous Me4 NNO3, I = 0.10 mol dm^-3
Experimental: as §1, §2, §3, §4, §5, §6

[5] = Selectivity constant of the ligand for Gd^3+ over Zn^2+; type: physicochemical
[6] = Selectivity constant of the ligand for Gd^3+ over Cu^2+; type: physicochemical
[7] = Selectivity constant of the ligand for Gd^3+ over Ca^2+; type: physicochemical
[8] = type: physicochemical; settings: pH 7.4, plasma concentrations of Ca^2+, Cu^2+ and Zn^2+
[9] = Species distribution of the ligands at various pH values (SPE, SPEPLOT); type: physicochemical; settings: 7.0×10^-3 mol dm^-3 system
Text: The average difference between observed and calculated -log[H^+ ] was <0.04 throughout all titrations.
When pH=7.0, the concentration of [H2 L]^3- is the maximum (97.5%). In the pH 3-5 range, the dominant species is the third protonated species [H3 L]^2-. When pH=3.7, the concentration of [H3 L]^2- is the maximum (87.75%). […] When pH=9.8, the concentration of [HL]^4- is the maximum (77.5%). In the pH 2-3 range, the dominant species is the fourth protonated species [H4 L]^-. When pH=2.3, the concentration of [H4 L]^- is the maximum (60.9%). In the pH range greater than 11, the dominant species is the deprotonated species [L]^5-.
When pH=2.7, the concentration of [H4 L]^- is the maximum (55.9%). In the pH 3.5-7 range, the dominant species is the third protonated species [H3 L]^2-. When pH=5, the concentration of [H3 L]^2- is the maximum (97.7%). In the pH 7-9 range, the dominant species is the second protonated species [H2 L]^3-. When pH=8.1, the concentration of [H2 L]^3- is the maximum (86.5%). […] When pH=9.9, the concentration of [HL]^4- is the maximum (71.6%). In the pH range greater than 12, the dominant species is the deprotonated species [L]^5-. In the pH range less than 2, the dominant species is the totally protonated species [H5 L].
When pH=2.8, the concentration of [H4 L]^- is the maximum (45.9%). In the pH 3.5-7.5 range, the dominant species is the third protonated species [H3 L]^2-. When pH=5.2, the concentration of [H3 L]^2- is the maximum (99.0%). In the pH 8-9.5 range, the dominant species is the second protonated species [H2 L]^3-. When pH=8.6, the concentration of [H2 L]^3- is the maximum (78.8%). In the pH 9.5-11 range, the dominant species is the first protonated species [HL]^4-. When pH=10.1, the concentration of [HL]^4- is the maximum (67.2%). In the pH range greater than 12, the dominant species is the deprotonated species [L]^5-. In the pH range less than 2, the dominant species is the totally protonated species [H5 L].

pM value, Gd^3+ = settings: pH 7.4, TL 1.1×10^-5, TM 1.0×10^-6 mol dm^-3
pM value, Ca^2+ = settings: pH 7.4, TL 1.1×10^-5, TM 1.0×10^-6 mol dm^-3
pM value, Zn^2+ = settings: pH 7.4, TL 1.1×10^-5, TM 1.0×10^-6 mol dm^-3
pM value, Cu^2+ = settings: pH 7.4, TL 1.1×10^-5, TM 1.0×10^-6 mol dm^-3

O=C(O)CN(CCCN(CC(=O)O)CC(=O)O)CCN(CC(=O)O)CC(=O)O [TTDA, 3,6,10-tri(carboxymethyl)-3,6,10-triazadodecanedioic acid]
basicity, Σ PKa [1]: 27.44 | pKa ([1]; read-out: first protonation constant log K1^H, [HL]/[L][H]): 10.6 | pKa ([1]; read-out: fourth protonation constant log K4^H, [H4 L]/[H3 L][H]): 2.8 | pKa ([1]; read-out: second protonation constant log K2^H, [H2 L]/[HL][H]): 8.92 | pKa ([1]; read-out: third protonation constant log K3^H, [H3 L]/[H2 L][H]): 5.12 | log K [CaHL]/[CaL][H] [2]: 6.06 | log K [ZnHL]/[ZnL][H] [3]: 7.41 | log K [CuHL]/[CuL][H] [4]: 5.52 | log K [CuL]/[Cu][L] [4]: 19.31 | selectivity constant log K(Gd/Zn) [5]: 4.18 | selectivity constant log K(Gd/Cu) [6]: 3.46 | selectivity constant log K(Gd/Ca) [7]: 8.32 | modified selectivity constant log K sel' [8]: 8.44 | maximum concentration of first protonated species [HL]^4- [9]: 77.5% | maximum concentration of fourth protonated species [H4 L]^- [9]: 60.9% | maximum concentration of second protonated species [H2 L]^3- [9]: 97.5% | maximum concentration of third protonated species [H3 L]^2- [9]: 87.75% | pH of maximum concentration of [H2 L]^3- [9]: 7.0 pH | pH of maximum concentration of [H3 L]^2- [9]: 3.7 pH | pH of maximum concentration of [H4 L]^- [9]: 2.3 pH | pH of maximum concentration of [HL]^4- [9]: 9.8 pH | pH range in which [H2 L]^3- is dominant [9]: 5-9 pH | pH range in which [H3 L]^2- is dominant [9]: 3-5 pH | pH range in which [H4 L]^- is dominant [9]: 2-3 pH | pH range in which [HL]^4- is dominant [9]: 9-10.5 pH | pH range in which deprotonated species [L]^5- is dominant [9]: greater than 11 pH | log K [GdL]/[Gd][L] (25.0 ± 0.1° C., aqueous Me4 NNO3, I = 0.10 mol dm^-3): 22.77 | conditional stability constant log KGdL' (pH 7.4): 18.04 | pM (Gd^3+) (pM value, Gd^3+): 17.03 | pM (Ca^2+) (pM value, Ca^2+): 9.73 | pM (Zn^2+) (pM value, Zn^2+): 13.22 | pM (Cu^2+) (pM value, Cu^2+): 13.58
